Patent US5043335A, “Indolocarbazoles and the use thereof” (Godecke Aktiengesellschaft, priority 1989, dated 1991)
pIC50: −log10 of the molar value.

Tests used:
protein kinase C = test: Inhibition of protein kinase C activated with phosphatidylserine and diacylglycerol (in vitro enzyme assay); assay type: biochemical; details: for pIC50: activated with phosphatidylserine and diacylglycerol, read-out: Inhibiton (IC50) C-Kinase
[1] = molecular target: T1, cAMP-dependent protein kinase (catalytic subunit) (Homo sapiens, UniProt P17612); test: cAMP-dependent protein kinase (A kinase) test, 32P-phosphate incorporation into histone; assay type: biochemical
T1 construct: purchased
Description: (§1) The determination the inhibition of the cAMP- and of the cGMP-dependent protein kinase took place according to the test description below.
cAMP-dependent protein kinase: The measurement of the activity takes place with the commercially available catalytic subunits of the enzyme. The incorporation of phosphorus 32-labeled phosphate into histone is thereby measured. A reaction batch of 200 μL contains the following components: 50 mM PIPES-NaOH (pH 7.5), 10 mM magnesium chloride, 1 mM DTT, 40 μM ATP, as well as 50 μg histone H-2B. The test is carried out as in the case of G kinase. The reaction is thereby started by the addition of 6 units of the catalytic subunit of the cAMP-dependent protein kinase.

[2] = molecular target: T2, cGMP-dependent protein kinase (Bos taurus, UniProt P00516); test: cGMP-dependent protein kinase (G kinase) test, 32P-phosphate incorporation into histone; assay type: biochemical, bovine
T2 construct: The enzyme was obtained from bovine lung tissue and purified; from tissue; host or cells: bovine lung
T2 sequence (P00516 1-671): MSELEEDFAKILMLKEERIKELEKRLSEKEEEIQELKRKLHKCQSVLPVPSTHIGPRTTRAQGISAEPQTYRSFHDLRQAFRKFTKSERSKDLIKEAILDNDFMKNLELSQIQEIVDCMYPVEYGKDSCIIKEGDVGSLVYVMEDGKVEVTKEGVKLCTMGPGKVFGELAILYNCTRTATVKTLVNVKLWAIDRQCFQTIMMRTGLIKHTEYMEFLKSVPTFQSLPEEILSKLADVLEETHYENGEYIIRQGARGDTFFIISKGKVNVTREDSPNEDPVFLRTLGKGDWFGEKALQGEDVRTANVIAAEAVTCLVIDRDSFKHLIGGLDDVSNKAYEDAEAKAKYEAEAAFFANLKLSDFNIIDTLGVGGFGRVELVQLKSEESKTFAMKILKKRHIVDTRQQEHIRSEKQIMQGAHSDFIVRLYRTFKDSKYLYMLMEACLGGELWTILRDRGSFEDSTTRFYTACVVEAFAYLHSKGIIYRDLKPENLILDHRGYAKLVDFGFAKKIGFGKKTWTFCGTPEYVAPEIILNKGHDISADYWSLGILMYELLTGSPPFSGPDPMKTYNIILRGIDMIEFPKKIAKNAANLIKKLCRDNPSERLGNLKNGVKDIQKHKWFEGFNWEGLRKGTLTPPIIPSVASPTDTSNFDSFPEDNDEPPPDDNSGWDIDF
Description: as §1
cGMP-dependent protein kinase: The enzyme was obtained from bovine lung tissue and purified and its activity determined via the incorporation of phosphorus 32-labeled phosphate into histone. The following components are contained in a test batch of 200 μL: 20 mM Tris-HCl (pH 7.4), 5 mM magnesium chloride, 1 mM DTT, 10 μM ATP, […], 40 μg BSA, 2% glycerol, as well as 10 μg histone II-A and possibly the substance to be investigated. […] After incubating for 5 minutes at 30° C., the reaction is stopped by the addition of 10% trichloroacetic acid and the samples then filtered off over a nitrocellulose filter. The phosphate incorporation is determined by Cerenkov counting in a scintillation counter and the percentage inhibition calculated therefrom.

Compound | pIC50 (protein kinase C) | pIC50 [1] | Ratio IC50 kinase / IC50 C-Kinase, A/C ([1]; A-kinase versus C-kinase) | pIC50 [2] | Ratio IC50 kinase / IC50 C-Kinase, G/C ([2]; G-kinase versus C-kinase) | inhibition of protein kinase C at a single concentration (protein kinase C; concentration of 10^-5 M, same conditions of the in vitro enzyme assay)
O=C1NC(=O)c2c1c1c3ccccc3n3c1c1c2c2ccccc2n1C1CCC3O1 [I, 9,10,11,12-tetrahydro-9,l2-epoxy-1H-diindolo[1,2,3-fg: 3',2',1',kl]pyrrolo[3,4-i][1,6]benzodiazocine-1,3(2H)-dione] | 7.55 | 5.26 | 196 | 6.28 | 19 | 
O=C1c2c(c3c4ccccc4n4c3c3c2c2ccccc2n3C2CCC4O2)C(=O)N1Cc1ccccc1 [III] | < 5.00 |  |  |  |  | does not display a significant inhibition
